Reference: a melting point compilation (Tetko et al.; mined from patent text by program, amines drawn as free bases though some values may be those of a salt)

Compound	melting point [°C]
CC1OC(Cn2cncn2)(c2ccc(Cl)cc2Cl)CN1S(=O)(=O)c1ccc(C(F)(F)F)cc1 (stereo not drawn)	188 to 190
O=C(O)C(Oc1ccccc1)c1ccc(Oc2ccccc2)cc1 (stereo not drawn)	144 to 146
COC(=O)COc1ccc2c(c1)sc1cc3ccccc3c(-c3ccc(O)cc3)c12	229 to 231
Cc1c(-c2cc(C(F)(F)F)cc(C(F)(F)F)c2)c(F)cc2nc(N)nc(N)c12	224 to 225
CN(C)c1ccc2c(=O)[nH]c(=O)n(CCCCN3CCC(OC(c4ccccc4)c4ccccc4)CC3)c2c1	203 to 204
CCOC(=O)c1cn(Cc2ccc(-c3ccccc3-c3nnn[nH]3)cc2)c2sc(CC)c(NC(C)=O)c2c1=O	163 to 166
Nc1cc(Cl)c(Br)cc1[N+](=O)[O-]	185 to 195
COc1ccc(C(=O)NCCN(C)C)cc1	53 to 54
COc1cc(C)c(C=CC(C)=CCCC=O)c(C)c1C	42 to 45
Cc1cc([N+](=O)[O-])c(CC2NC(=O)NC2=O)cc1Cl (stereo not drawn)	211 to 214
Cc1cc(Oc2cccc(C(F)(F)F)c2)nn1C(=O)NCC1CCCO1 (stereo not drawn)	101 to 102
Cc1c([N+](=O)[O-])cnn1-c1c(Cl)cc(C(F)(F)F)cc1Cl	91 to 92
CC(=O)OCC(=O)C12OCOC1CC1C3CCC4=CC(=O)C=CC4(C)C3(F)C(O)CC12C (stereo not drawn)	283 to 285
N#Cc1cn(-c2cccc(F)c2)c(=O)[nH]c1=O	246
CN(CCNc1ccc2c3c(nn2CCN)-c2c(OCc4ccccc4)ccc(OCc4ccccc4)c2C(=O)c13)Cc1ccccc1	169 to 172
CCCc1c(OCCCCCc2ccc(OC)c(OC)c2)ccc(C(C)=O)c1O	72 to 75
CC(CC(=O)Nc1cc(-c2ccnc3c(C(=O)c4cccs4)cnn23)ccc1F)C(F)(F)F (stereo not drawn)	185 to 186
CCCCOC(=O)c1c(N)c2cccnc2n(CC)c1=O	117 to 120
N#Cc1cnnc2ccccc12	140
O=C1Cc2cc(NC(=O)c3ccccc3[N+](=O)[O-])ccc2N1	265
FC(F)(F)c1cc2ccccc2[nH]1	102
CC(C)(C)c1cc(CCc2ccccc2NC(=O)NC2CCC(O)CC2)cc(C(C)(C)C)c1O (stereo not drawn)	202 to 203
Cc1ccc(C)c(C(=O)Nc2ccc(C(=O)N3Cc4ccccc4Cc4ccccc43)cc2)c1	213 to 216

Compound	melting point [°C]
COC(=O)CCc1c[nH]cn1	105 to 108
CCOC(=O)c1ncc2[nH]c3ccc(C4CCCCC4)cc3c2c1C	191 to 193
COc1ccc2ccccc2c1CCl	122 to 123
COc1cc(C(=O)CS(=O)(=O)c2ccccc2)ccc1Cc1cn(C(C)C(=O)N(C)C)c2ccc(C(=O)NCC3CCCC3)cc12 (stereo not drawn)	146 to 147
COCCN(C)Cc1c(-c2ccc([N+](=O)[O-])cc2)sc2c1c(=O)n(-c1ccc3c(c1)OCO3)c(=O)n2Cc1c(F)cccc1F	190 to 192
COC(=O)C(=O)c1ccc(OCCOc2ccc3ccncc3c2)cc1	144 to 145
Clc1cc(-c2cnc3c(c2)N(Cc2c(Cl)cccc2Cl)CCN3)ccn1	194
COc1ccc(-n2nc(C(F)(F)F)nc2-c2ccc(S(N)(=O)=O)cc2)cc1	228
Cc1ccc(-c2ccc(C(=O)N3Cc4cccn4Cc4ccccc43)cc2)c2ccccc12	160 to 162
N#Cc1cscc1Nc1c(Cl)cccc1Cl	105 to 108
O=c1n(CC2CN(Cc3ccccc3)CCO2)c2ccccc2n1-c1ccccc1 (stereo not drawn)	90
CS(=O)(=O)c1ccc(-c2cc(CO)nn2-c2ccc(Cl)cc2)cc1	96 to 100
CCOc1cc(CCl)ccc1OCc1nc(-c2ccccc2)oc1C	138 to 139
O=C(Nc1cc(-c2ccnc3c(C(=O)c4cccs4)cnn23)ccc1F)c1ccccc1Cl	166 to 168
CCOC(=O)C=Cc1cc(C=CC(=O)OC(C)(C)C)cc(Oc2cccnc2)c1	116 to 118
CCC(=O)C(C(=O)OC)C(C(=O)c1ccccc1)c1ccc(F)cc1 (stereo not drawn)	104 to 109
O=C(NCCCCC(NS(=O)(=O)c1ccc2oc3ccccc3c2c1)C(=O)O)OCc1ccccc1 (stereo not drawn)	133 to 135
CC(C)C(O)(Cc1ccccc1)Cc1ccccc1	52 to 53
O=C(O)C(=O)c1ccc(OCCCCCCOc2ccccc2)cc1	121 to 122
[N-]=[N+]=NC1CC(n2cc(I)c(=O)[nH]c2=O)OC1C(O)C(c1ccccc1)(c1ccccc1)c1ccccc1 (stereo not drawn)	80
COc1ccc2c(c1)[nH]c1cc(OC)ccc12	273 to 274
COCCc1nc2c(N)nc3ccccc3c2n1CCOCCNC(=O)c1ccccc1	184 to 187
CCCc1nc2c(N)nc3ccccc3c2n1CCOCCCS(=O)(=O)c1ccccc1	160 to 161

Compound	melting point [°C]
NC(=O)c1c(C(F)(F)F)ccc(Cl)c1Cl	118 to 120
Cc1cc(CN=C(O)c2cc(C(O)=NCc3cc(C)c(O)c(C(C)(C)C)c3)c(C(=O)O)cc2C(=O)O)cc(C(C)(C)C)c1O	267 to 269
CC(C)(C)OC(=O)N1CCOc2ccc(Br)cc2S1(=O)=O	119
NN(Cc1ccccc1)C(=S)Nc1ccccc1	121 to 123
CCCCCCCC(=O)SSC(=O)CCCCCCC	36 to 38
CC(C)(C)CCN1C(=O)C(N)C(=O)N(c2ccccc2F)c2ccccc21 (stereo not drawn)	98 to 100
COc1c(Cl)ccc(-c2cc(N)c(Cl)c(C(=O)NOCc3ccc(F)cc3)n2)c1F	150 to 153
CNC(=O)c1ccccc1Nc1nc(Nc2cc3c(cc2OC)CCN(CCOC)CC3)ncc1Br	171 to 175
COC(=O)CCC(=O)OCC(C)(C)Oc1ccc2c(c1)CCc1c-2ccc2c1CCC2(C)C	58 to 60
CCOC(=O)c1c(C)[nH]c(Sc2cc(Cl)cc(Cl)c2)c1C(C)C	148 to 151
CC(C)(C)c1cc(-c2nc3n(c2CO)CCS3)cc(C(C)(C)C)c1O	227 to 229
COC(=O)c1cc(O)c2cc3c(O)cc(C(=O)OC)nc3c(C)c2n1	296
O=S(=O)(Nc1ccc2c(OCc3csc(-c4ccc(Cl)nc4)n3)cccc2c1)C(F)(F)F	154 to 156
CC1(C)CCC(C)(C)c2cc(N(CCCCOCc3ccccc3)C(=O)Nc3ccc(C(=O)O)cc3)ccc21	158 to 162
CC(C)(OCc1cc2cc(Cl)ccc2n1S(=O)(=O)c1ccc2ncsc2c1)C(=O)O	74
Nc1ccc(CCNS(=O)(=O)c2cccc3[nH]nnc23)cc1	178 to 179
CCCCCCCCCCCCCc1c[nH]c(C(=O)O)c1	150 to 151
O=C1CCCC2=C1C(c1ccccc1)C1=C(CCCC1)N2 (stereo not drawn)	252 to 254
CCCCn1c(C)c(N)c(=O)n(C)c1=O	74 to 75
Cn1c(=O)ccc2cnc(NCc3ccccc3)nc21	160 to 162
CN1CC(c2ccccc2)=C(O)C1=O	245 to 250
CCOC(=O)C1=C(CSSc2ccccc2)NC(C)=C(C(=O)OC)C1c1cccc([N+](=O)[O-])c1 (stereo not drawn)	132 to 133
